Source: article PMC10947119 (Angewandte Chemie (International Ed. in English), 2023)
Like-named read-outs stand apart in the source and are kept apart here.

Experiments:
[1] = system: coaD CRISPRi knockdown Mtb mutant (Mtb H37RvMA); type: cell-based, Mycobacterium tuberculosis
[2] = system: coaBC CRISPRi knockdown Mtb mutant (Mtb H37RvMA); type: cell-based, Mycobacterium tuberculosis; conditions: highest ATc concentrations compatible with uninhibited proliferation

`CO[C@H]1/C=C/O[C@@]2(C)Oc3c(C)c(O)c4c(O)c(c(/C=N/N5CCN(C)CC5)c(O)c4c3C2=O)NC(=O)/C(C)=C\C=C\[C@H](C)[C@H](O)[C@@H](C)[C@@H](O)[C@@H](C)[C@H](OC(C)=O)[C@@H]1C` [rifampicin, reference compound] was tested, and the “Effect of ATc (coaD silencing) on susceptibility” value (“Effect of ATc (coaD silencing)” below) [1] was “did not render the coaD CRISPRi Mtb mutant more susceptible”.

`O=C(O)c1cnn(-c2ccccc2)c1OCCCc1c[nH]c2ccccc12` [compound 20] was tested, and the “minimum inhibitory concentration, MIC” value [1] was “≈ 60 μM”, the “Effect of ATc (coaD silencing)” value ([1]; 1.6 and 0.8 ng/mL ATc) was “enhanced in an ATc concentration‐dependent manner” and the “Effect of ATc (coaBC silencing) on susceptibility” value [2] was “little‐to‐no effect”.

With `NNC(=O)c1ccncc1` [isoniazid, reference compound] the “Effect of ATc (coaD silencing)” value [1] was “did not render the coaD CRISPRi Mtb mutant more susceptible”.
